Laboratory results reported in patent US10543212B2, “Substituted amines for treating cardiac diseases” (Cardurion Pharmaceuticals, LLC, priority 2017, dated 2020).

Target: T1, Full-length, GST-tagged, human CaMKIIδ (Homo sapiens, UniProt Q13557)
T1 construct: Full-Length, Glutathione-S-Transferase(GST)-Tagged, Human CaMKIIδ was purchased from Carna Biosciences; purchased Carna Biosciences 02-111
Experiment: CaMKIIδ binding assay (TR-FRET with BODIPY-labeled probe ligand)
Details: CaMKIIδ binding assay, results of Table 2
Procedure, shortened: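 TR-FRET probe-displacement binding: 0.5 nM GST-CaMKIIδ with 10 μg/mL calmodulin, 1 mM CaCl2, 0.21 nM Tb-anti-GST Ab and 300 nM BODIPY probe in HEPES pH 7.6 buffer. Eight-point 4-fold dilutions, 1 hr at room temperature. IC50 from logistic fit; 100% inhibition defined by 3 μM parent compound.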

T1 sequence (Q13557 1-478 isoform Q13557-12): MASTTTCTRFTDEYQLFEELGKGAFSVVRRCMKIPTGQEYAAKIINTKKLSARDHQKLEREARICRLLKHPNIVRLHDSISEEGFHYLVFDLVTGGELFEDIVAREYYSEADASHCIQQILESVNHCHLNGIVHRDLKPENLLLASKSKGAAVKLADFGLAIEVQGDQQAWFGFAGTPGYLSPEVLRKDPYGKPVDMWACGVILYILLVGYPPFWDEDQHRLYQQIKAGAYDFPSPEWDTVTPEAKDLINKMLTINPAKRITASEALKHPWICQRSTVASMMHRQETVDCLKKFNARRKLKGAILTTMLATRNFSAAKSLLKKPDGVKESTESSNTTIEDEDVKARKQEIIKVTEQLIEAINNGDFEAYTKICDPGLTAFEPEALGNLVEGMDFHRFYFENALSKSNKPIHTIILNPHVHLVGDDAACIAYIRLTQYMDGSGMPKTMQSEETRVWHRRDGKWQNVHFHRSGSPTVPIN

How did the IC50 turn out when `C[C@@H](Cn1cnnn1)Oc1cc(-c2cnc(Nc3ccc4c(c3)N(C(=O)C3CCN(C)CC3)CC4)nc2)ccc1Cl` [Example 435, (S)-(6-((5-(3-((1-(1H-tetrazol-1-yl)propan-2-yl)oxy)-4-chlorophenyl)pyrimidin-2-yl)amino)indolin-1-yl) (1-methylpiperidin-4-yl)methanone] was run?
Its IC50 is < 10 nM.

Which IC50 does the source give for `COc1cc2c(cc1Nc1ncc(-c3ccc(Cl)c(O[C@@H](C)Cn4cnnn4)c3)cn1)CN(CC(C)=O)CC2` [Example 510, (S)-1-(7-((5-(3-((1-(1H-tetrazol-1-yl)propan-2-yl)oxy)-4-chlorophenyl)pyrimidin-2-yl)amino)-6-methoxy-3,4-dihydroisoquinolin-2(1H)-yl)propan-2-one] here?
The IC50 was < 10 nM.

How did the IC50 turn out when `COc1cc2c(cc1Nc1ncc(-c3ccc(Cl)c(O[C@@H](C)Cn4cnnn4)c3)cn1)C(=O)N(C1CCC1)C2` [Example 441, (S)-6-((5-(3-((1-(1H-tetrazol-1-yl)propan-2-yl)oxy)-4-chlorophenyl)pyrimidin-2-yl)amino)-2-cyclobutyl-5-methoxyisoindolin-1-one] was run?
Its IC50 is 10 to 100 nM.

How did the IC50 turn out when `COc1cc2c(cc1Nc1ncc(-c3ccc(Cl)c(O[C@@H](C)Cn4cnnn4)c3)cn1)N(C(=O)CN1CCOCC1)CC2` [Example 498, (S)-1-(6-((5-(3-((1-(1H-tetrazol-1-yl)propan-2-yl)oxy)-4-chlorophenyl)pyrimidin-2-yl)amino)-5-methoxyindolin-1-yl)-2-morpholinoethan-1-one] was run?
The IC50 was ≥ 100 nM.

Which IC50 does the source give for `COc1cc2c(cc1Nc1ncc(-c3ccc(Cl)c(O[C@@H](C)Cn4cnnn4)c3)cn1)NCC2` [Example 477, (S)-N-(5-(3-((1-(1H-tetrazol-1-yl)propan-2-yl)oxy)-4-chlorophenyl)pyrimidin-2-yl)-5-methoxyindolin-6-amine] here?
The IC50 was 10 to 100 nM.

With `COc1cc2c(cc1Nc1ncc(-c3ccc(Cl)c(O[C@@H](C)Cn4cnnn4)c3)cn1)CN(C1COC1)CCC2` [Example 467, (S)-N-(5-(3-((1-(1H-tetrazol-1-yl)propan-2-yl)oxy)-4-chlorophenyl)pyrimidin-2-yl)-7-methoxy-2-(oxetan-3-yl)-2,3,4,5-tetrahydro-1H-benzo[c]azepin-8-amine] as the molecule, how does the IC50 read?
Its IC50 is 10 to 100 nM.

For `COc1cc(N2CCC(N3CCOCC3)CC2)ccc1Nc1ncc(-c2cc(O[C@@H](C)Cn3cnnn3)c(Cl)cn2)cn1` [Example 534, (S)-5-(4-((1-(1H-tetrazol-1-yl)propan-2-yl)oxy)-5-chloropyridin-2-yl)-N-(2-methoxy-4-(4-morpholinopiperidin-1-yl)phenyl)pyrimidin-2-amine], which IC50 is on record?
Its IC50 is ≥ 100 nM.

How did the IC50 turn out when `COc1ccc(N2CCC(N3CCOCC3)CC2)cc1Nc1ncc(-c2ccc(C#N)c(O[C@@H](C)COC(F)F)c2)cn1` [Example 495, (S)-2-((1-(difluoromethoxy)propan-2-yl)oxy)-4-(2-((2-methoxy-5-(4-morpholinopiperidin-1-yl)phenyl)amino)pyrimidin-5-yl)benzonitrile] was run?
The IC50 was 10 to 100 nM.

Same assay, conditions: CaMKIIδ binding assay; activity class per Table 2

`C[C@@H](Cn1cnnn1)Oc1cc(-c2cnc(Nc3cn([C@@H]4CCN(C5CCOCC5)C[C@H]4O)nc3C(F)(F)F)nc2)ccc1Cl` (mixture of isomers) [Example 897, trans-4-(4-((5-(3-(((S)-1-(1H-tetrazol-1-yl)propan-2-yl)oxy)-4-chlorophenyl)pyrimidin-2-yl)amino)-3-(trifluoromethyl)-1H-pyrazol-1-yl)-1-(tetrahydro-2H-pyran-4-yl)piperidin-3-ol] was tested. Which IC50 did it give?
Its IC50 is < 10 nM.

With `CCOC(=O)C(C)(C)n1cc(Nc2ncc(-c3ccc(Cl)c(O[C@@H](C)Cn4cnnn4)c3)cn2)c(OCC(F)(F)F)n1` [Example 885, ethyl (S)-2-(4-((5-(3-((1-(1H-tetrazol-1-yl)propan-2-yl)oxy)-4-chlorophenyl)pyrimidin-2-yl)amino)-3-(2,2,2-trifluoroethoxy)-1H-pyrazol-1-yl)-2-methylpropanoate] as the molecule, how does the IC50 read?
Its IC50 is < 10 nM.

How did the IC50 turn out when `C[C@@H](Cn1cnnn1)Oc1cc(-c2cnc(Nc3cn(CCNC(N)=O)nc3C(F)(F)F)nc2)ccc1Cl` [Example 887, (S)-1-(2-(4-((5-(3-((1-(1H-tetrazol-1-yl)propan-2-yl)oxy)-4-chlorophenyl)pyrimidin-2-yl)amino)-3-(trifluoromethyl)-1H-pyrazol-1-yl)ethyl)urea] was run?
Its IC50 is 10 to 100 nM.

With `C[C@@H](Cn1cnnn1)Oc1cc(-c2cnc(Nc3cn([C@H]4C[C@H](N5CCOCC5)C4)nc3OCC(F)(F)F)nc2)ccc1Cl` [Example 943, 5-(3-(((S)-1-(1H-tetrazol-1-yl)propan-2-yl)oxy)-4-chlorophenyl)-N-(1-(trans-3-morpholinocyclobutyl)-3-(2,2,2-trifluoroethoxy)-1H-pyrazol-4-yl)pyrimidin-2-amine] as the molecule, how does the IC50 read?
The IC50 was < 10 nM.

Same assay, conditions: Table 2; CaMKIIδ binding assay, activity given as class A/B/C

With `C[C@@H](Cn1cnnn1)Oc1cc(-c2cnc(Nc3cn([C@H]4C[C@@H](N5CCOCC5)C4)nc3OCC(F)F)nc2)ccc1Cl` [Example 849, (S)-5-(3-((1-(1H-tetrazol-1-yl)propan-2-yl)oxy)-4-chlorophenyl)-N-(3-(2,2-difluoroethoxy)-1-(cis-3-morpholinocyclobutyl)-1H-pyrazol-4-yl)pyrimidin-2-amine] as the molecule, how does the IC50 read?
The IC50 was < 10 nM.

`C[C@@H](Cn1cnnn1)Oc1cc(-c2cnc(Nc3cn(CC4(O)CCC4)nc3C(F)(F)F)nc2)ccc1Cl` [Example 855, (S)-1-((4-((5-(3-((1-(1H-tetrazol-1-yl)propan-2-yl)oxy)-4-chlorophenyl)pyrimidin-2-yl)amino)-3-(trifluoromethyl)-1H-pyrazol-1-yl)methyl)cyclobutan-1-ol] was tested. Which IC50 did it give?
The IC50 was < 10 nM.

Which IC50 does the source give for `C[C@@H](Cn1cnnn1)Oc1cc(-c2cnc(Nc3cn(CCN)nc3C(F)(F)F)nc2)ccc1Cl` [Example 877, (S)-5-(3-((1-(1H-tetrazol-1-yl)propan-2-yl)oxy)-4-chlorophenyl)-N-(1-(2-aminoethyl)-3-(trifluoromethyl)-1H-pyrazol-4-yl)pyrimidin-2-amine] here?
Its IC50 is < 10 nM.

How did the IC50 turn out when `C[C@@H](Cn1cnnn1)Oc1cc(-c2cnc(Nc3cn([C@H]4CC[C@@H](N5CCC5)CC4)nc3C(F)(F)F)nc2)ccc1Cl` [Example 778, 5-(3-(((S)-1-(1H-tetrazol-1-yl)propan-2-yl)oxy)-4-chlorophenyl)-N-(1-(cis-4-(azetidin-1-yl)cyclohexyl)-3-(trifluoromethyl)-1H-pyrazol-4-yl)pyrimidin-2-amine] was run?
The IC50 was < 10 nM.

Same assay, conditions: Table 2; activity class for CaMKIIδ

For `C[C@@H](Cn1cnnn1)Oc1cc(-c2cnc(Nc3cn(CC4CN(Cc5ccccc5)CCO4)nc3C(F)(F)F)nc2)ccc1Cl` (stereo partly drawn) [Example 641, 5-(3-(((S)-1-(1H-tetrazol-1-yl)propan-2-yl)oxy)-4-chlorophenyl)-N-(1-((4-benzylmorpholin-2-yl)methyl)-3-(trifluoromethyl)-1H-pyrazol-4-yl)pyrimidin-2-amine], which IC50 is on record?
The IC50 was ≥ 100 nM.

For `C[C@@H](Cn1cnnn1)Oc1cc(-c2cnc(Nc3cn(C4C[C@@H]5CC[C@H]4C5)nc3C(F)(F)F)nc2)ccc1Cl` (stereo partly drawn) [Example 717, 5-(3-(((S)-1-(1H-tetrazol-1-yl)propan-2-yl)oxy)-4-chlorophenyl)-N-(1-((1S,4R)-bicyclo[2.2.1]heptan-2-yl)-3-(trifluoromethyl)-1H-pyrazol-4-yl)pyrimidin-2-amine], which IC50 is on record?
The IC50 was ≥ 100 nM.

Which IC50 does the source give for `C[C@@H](Cn1cnnn1)Oc1cc(-c2cnc(Nc3cn(CC4CCCCO4)nc3C(F)(F)F)nc2)ccc1Cl` (stereo partly drawn) [Example 712, 5-(3-(((S)-1-(1H-tetrazol-1-yl)propan-2-yl)oxy)-4-chlorophenyl)-N-(1-((tetrahydro-2H-pyran-2-yl)methyl)-3-(trifluoromethyl)-1H-pyrazol-4-yl)pyrimidin-2-amine] here?
Its IC50 is 10 to 100 nM.

For `COc1cc(N2CCN(C3CCOCC3)C[C@@H]2C)ccc1Nc1ncc(-c2ccc(Cl)c(O[C@@H](C)Cn3cnnn3)c2)cn1` [Example 654, 5-(3-(((S)-1-(1H-tetrazol-1-yl)propan-2-yl)oxy)-4-chlorophenyl)-N-(2-methoxy-4-((S)-2-methyl-4-(tetrahydro-2H-pyran-4-yl)piperazin-1-yl)phenyl)pyrimidin-2-amine], which IC50 is on record?
Its IC50 is < 10 nM.

Which IC50 does the source give for `COc1cc(N2CCNCC2)ncc1Nc1ncc(-c2ccc(Cl)c(O[C@@H](C)Cn3cnnn3)c2)cn1` [Example 622, (S)-5-(3-((1-(1H-tetrazol-1-yl)propan-2-yl)oxy)-4-chlorophenyl)-N-(4-methoxy-6-(piperazin-1-yl)pyridin-3-yl)pyrimidin-2-amine] here?
Its IC50 is < 10 nM.

For `C[C@@H](Cn1cnnn1)Oc1cc(-c2cnc(Nc3cn(Cc4nc5ccccc5[nH]4)nc3C(F)(F)F)nc2)ccc1Cl` [Example 658, (S)-N-(1-((1H-benzo[d]imidazol-2-yl)methyl)-3-(trifluoromethyl)-1H-pyrazol-4-yl)-5-(3-((1-(1H-tetrazol-1-yl)propan-2-yl)oxy)-4-chlorophenyl)pyrimidin-2-amine], which IC50 is on record?
Its IC50 is 10 to 100 nM.

Which IC50 does the source give for `C[C@@H](Cn1cnnn1)Oc1cc(-c2cnc(Nc3cc(N4CCN(C5CCOCC5)CC4)ncc3OC(F)(F)F)nc2)ccc1Cl` [Example 705, (S)-5-(3-((1-(1H-tetrazol-1-yl)propan-2-yl)oxy)-4-chlorophenyl)-N-(2-(4-(tetrahydro-2H-pyran-4-yl)piperazin-1-yl)-5-(trifluoromethoxy)pyridin-4-yl)pyrimidin-2-amine] here?
Its IC50 is < 10 nM.

Which IC50 does the source give for `COc1cc(N2CCN(CC3COC3)CC2)ncc1Nc1ncc(-c2ccc(Cl)c(O[C@@H](C)Cn3cnnn3)c2)cn1` [Example 652, (S)-5-(3-((1-(1H-tetrazol-1-yl)propan-2-yl)oxy)-4-chlorophenyl)-N-(4-methoxy-6-(4-(oxetan-3-ylmethyl)piperazin-1-yl)pyridin-3-yl)pyrimidin-2-amine] here?
Its IC50 is 10 to 100 nM.

`COc1ccc(N2C[C@@H](C)N[C@@H](C)C2)cc1Nc1ncc(-c2ccc(Cl)c(O[C@@H](C)Cn3cnnn3)c2)cn1` [Example 612, 5-(3-(((S)-1-(1H-tetrazol-1-yl)propan-2-yl)oxy)-4-chlorophenyl)-N-(5-(cis-3,5-dimethylpiperazin-1-yl)-2-methoxyphenyl)pyrimidin-2-amine] was tested. Which IC50 did it give?
Its IC50 is < 10 nM.
